A short description of data set [1]: Pharmacokinetic Assay, single oral dose 5 mg/kg (Table 12). It is filed as in vivo. The conditions noted are these: mouse, plasma concentration, C57 female mice, single oral dose 5 mg/kg. The protocol: Adult C57 female mice were received to single-dose of the test compounds with 15% DMSO, 10% Kolliphor^@HS 15 and 75% saline as excipients, the mice (n=3) were giving oral administration (intragastric administration) with the compounds at a dose of 5 mg/kg. Time of blood collection: 30 min, 2 h, 4 h. approximately 0.1 mL of whole blood was collected from retro-orbital venous plexus, and placed into tubes that contained K2-EDTA as an anticoagulant. The whole blood were centrifuged at 4° C. and 4000 rpm for 10 min. The plasma was transferred into centrifuge tubes, and stored at −20° C. until being analyzed. Concentrations of test compounds in the plasma samples were analyzed with liquid chromatography-tandem mass spectrometry (LC-MS/MS). Plasma concentration-time data of individual animals was analyzed using Microsoft Excel 2010.

Another data set addresses PD-1/PD-L1 (Homo sapiens (Human), UniProt Q9NZQ7). As to the kind of experiment: PD-1/PD-L1 Binding Assay (Alphascreen). An outline of the steps:
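PD-1/PD-L1 binding detected by anti-6×His acceptor and streptavidin donor beads after 120 min in the dark at 25 °C. Beforehand, the two proteins were incubated 15 min at 25 °C with inhibitor at 0.015–300 nM (1% DMSO). IC50 comes from a log concentration–response curve.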
A general note: Bead proximity is the source of the signal in Alpha formats.

Chain of PD-1/PD-L1 (Q9NZQ7 19-238): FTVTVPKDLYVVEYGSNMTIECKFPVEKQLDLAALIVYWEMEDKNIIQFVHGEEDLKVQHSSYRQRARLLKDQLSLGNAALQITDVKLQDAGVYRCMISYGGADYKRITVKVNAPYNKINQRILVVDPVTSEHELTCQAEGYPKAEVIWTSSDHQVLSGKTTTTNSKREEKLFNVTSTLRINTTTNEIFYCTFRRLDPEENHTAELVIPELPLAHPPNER

In data set [1], `Cc1c(-c2nc3cc(CN4CCC(F)C4)c(OC(F)F)cc3o2)cccc1-c1cccc(-c2nc3cc(CN4CCC[C@H]4C(=O)O)c(OC(F)F)cc3o2)c1C` (stereo partly drawn) [Example 10, ((6-(difluoromethoxy)-2-(3′-(6-(difluoromethoxy)-5-((3-fluoropyrrolidin-1-yl)methyl)benzo[d]oxazol-2-yl)-2,2′-dimethyl-[1,1′-biphenyl]-3-yl)benzo[d]oxazol-5-yl)methyl)-L-proline] had a concentration at 0.5 h of 80.9 ng/mL, a concentration at 2 h of 221 ng/mL and a concentration at 4 h of 214 ng/mL. Besides, the IC50 at PD-1/PD-L1 (numeric values) came to 19 nM.
The like results for `Cc1c(-c2nc3cc(CN4CCOCC4)c(OC(F)F)cc3o2)cccc1-c1cccc(-c2nc3cc(CN4CCC[C@H]4C(=O)O)c(OC(F)F)cc3o2)c1C` [Example 13, ((6-(difluoromethoxy)-2-(3′-(6-(difluoromethoxy)-5-(morpholinomethyl)benzo[d]oxazol-2-yl)-2,2′-dimethyl-[1,1′-biphenyl]-3-yl)benzo[d]oxazol-5-yl)methyl)-L-proline] were, in that order, 79.3 ng/mL, 241 ng/mL, 301 ng/mL and 26 nM.
The corresponding values for `Cc1c(-c2nc3cc(CN4C[C@@H](F)[C@H](F)C4)c(OC(F)F)cc3o2)cccc1-c1cccc(-c2nc3cc(CN4CCC[C@H]4C(=O)O)c(OC(F)F)cc3o2)c1C` [Example 18, ((6-(difluoromethoxy)-2-(3′-(6-(difluoromethoxy)-5-(((3R,4R)-3,4-difluoropyrrolidin-1-yl)methyl)benzo[d]oxazol-2-yl)-2,2′-dimethyl-[1,1′-biphenyl]-3-yl)benzo[d]oxazol-5-yl)methyl)-L-proline] are 303 ng/mL, 642 ng/mL, 626 ng/mL and 164 nM.
Turning to `Cc1c(-c2nc3cc(CNCC(O)C(F)(F)F)c(OC(F)F)cc3o2)cccc1-c1cccc(-c2nc3cc(CN4CCC[C@H]4C(=O)O)c(OC(F)F)cc3o2)c1C` (stereo partly drawn) [Example 22, ((6-(difluoromethoxy)-2-(3′-(6-(difluoromethoxy)-5-(((3,3,3-trifluoro-2-hydroxypropyl)amino)methyl)benzo[d]oxazol-2-yl)-2,2′-dimethyl-[1,1′-biphenyl]-3-yl)benzo[d]oxazol-5-yl)methyl)-L-proline], in data set [1], the concentration at 0.5 h came out at 68.6 ng/mL, the concentration at 2 h was 155 ng/mL and the concentration at 4 h amounted to 81.1 ng/mL. Also, on PD-1/PD-L1 (numeric values), the IC50 turned out to be 25 nM.
The like results for `Cc1c(-c2nc3cc(CN4CCN(C)C(C)C4)c(OC(F)F)cc3o2)cccc1-c1cccc(-c2nc3cc(CN4CCC[C@H]4C(=O)O)c(OC(F)F)cc3o2)c1C` (stereo partly drawn) [Example 23, ((6-(difluoromethoxy)-2-(3′-(6-(difluoromethoxy)-5-((3,4-dimethylpiperazin-1-yl)methyl)benzo[d]oxazol-2-yl)-2,2′-dimethyl-[1,1′-biphenyl]-3-yl)benzo[d]oxazol-5-yl)methyl)-L-proline] were, in that order, 46.2 ng/mL, 148 ng/mL, 94.7 ng/mL and 7.7 nM.
The like results for `Cc1c(-c2nc3cc(CN4CC(C)C4)c(OC(F)F)cc3o2)cccc1-c1cccc(-c2nc3cc(CN4CCC[C@H]4C(=O)O)c(OC(F)F)cc3o2)c1C` [Example 56, ((6-(difluoromethoxy)-2-(3′-(6-(difluoromethoxy)-5-((3-methylazetidin-1-yl)methyl)benzo[d]oxazol-2-yl)-2,2′-dimethyl-[1,1′-biphenyl]-3-yl)benzo[d]oxazol-5-yl)methyl)-L-proline] were, in that order, 19.9 ng/mL, 192 ng/mL, 155 ng/mL and 0.83 nM.
The corresponding values for `Cc1c(-c2nc3cc(CN(C)[C@@H]4CCC[C@H]4O)c(OC(F)F)cc3o2)cccc1-c1cccc(-c2nc3cc(CN4CCC[C@H]4C(=O)O)c(OC(F)F)cc3o2)c1C` [Example 57, ((6-(difluoromethoxy)-2-(3′-(6-(difluoromethoxy)-5-((((1R,2R)-2-hydroxycyclopentyl) (methyl)amino)methyl)benzo[d]oxazol-2-yl)-2,2′-dimethyl-[1,1′-biphenyl]-3-yl)benzo[d]oxazol-5-yl)methyl)-L-proline] are 27.1 ng/mL, 149 ng/mL, 90 ng/mL and 1.2 nM.
With `Cc1c(-c2nc3cc(CN4CCCC4)c(OC(F)F)cc3o2)cccc1-c1cccc(-c2nc3cc(CN4CCC[C@@H]4C(=O)O)c(OC(F)F)cc3o2)c1C` [Example 66, ((6-(difluoromethoxy)-2-(3′-(6-(difluoromethoxy)-5-(pyrrolidin-1-ylmethyl)benzo[d]oxazol-2-yl)-2,2′-dimethyl-[1,1′-biphenyl]-3-yl)benzo[d]oxazol-5-yl)methyl)-D-proline], in data set [1], the concentration at 2 h is 137 ng/mL and the concentration at 4 h amounted to 111 ng/mL. Further, the concentration for half-maximal inhibition (IC50) on PD-1/PD-L1 (numeric values) came out at 1.8 nM.
In data set [1], `Cc1c(-c2nc3cc(CN4CCC(C)(C)C4)c(OC(F)F)cc3o2)cccc1-c1cccc(-c2nc3cc(CN4CCC[C@H]4C(=O)O)c(OC(F)F)cc3o2)c1C` [Example 67, ((6-(difluoromethoxy)-2-(3′-(6-(difluoromethoxy)-5-((3,3-dimethylpyrrolidin-1-yl)methyl)benzo[d]oxazol-2-yl)-2,2′-dimethyl-[1,1′-biphenyl]-3-yl)benzo[d]oxazol-5-yl)methyl)-L-proline] gave a concentration at 0.5 h of 143 ng/mL, a concentration at 2 h of 418 ng/mL and a concentration at 4 h of 462 ng/mL. The compound also returned an IC50 on PD-1/PD-L1 (numeric values) of 6.7 nM.
In data set [1], `Cc1c(-c2nc3cc(CN4CC=CC4)c(OC(F)F)cc3o2)cccc1-c1cccc(-c2nc3cc(CN4CCC[C@H]4C(=O)O)c(OC(F)F)cc3o2)c1C` [Example 70, ((6-(difluoromethoxy)-2-(3′-(6-(difluoromethoxy)-5-((2,5-dihydro-1H-pyrrol-1-yl)methyl)benzo[d]oxazol-2-yl)-2,2′-dimethyl-[1,1′-biphenyl]-3-yl)benzo[d]oxazol-5-yl)methyl)-L-proline] showed a concentration at 0.5 h of 36.4 ng/mL, a concentration at 2 h of 151 ng/mL and a concentration at 4 h of 158 ng/mL. At PD-1/PD-L1 (numeric values), this compound gave an IC50 of 3.3 nM.
The like results for `Cc1c(-c2nc3cc(CN4CCC[C@H]4C(=O)O)c(OC(F)F)cc3o2)cccc1-c1cccc(-c2nc3cc(CN4[C@H]5CC[C@@H]4CC5)c(OC(F)F)cc3o2)c1C` [Example 72, ((2-(3′-(5-(((1s,4s)-7-azabicyclo[2.2.1]heptan-7-yl)methyl)-6-(difluoromethoxy)benzo[d]oxazol-2-yl)-2,2′-dimethyl-[1,1′-biphenyl]-3-yl)-6-(difluoromethoxy)benzo[d]oxazol-5-yl)methyl)-L-proline] were, in that order, 42.6 ng/mL, 140 ng/mL, 132 ng/mL and 0.98 nM.
In the case of `Cc1c(-c2nc3cc(CN4CCCC4(C)C)ccc3o2)cccc1-c1cccc(-c2nc3cc(CN4CCC[C@H]4C(=O)O)c(OC(F)F)cc3o2)c1C` [Example 311, ((6-(difluoromethoxy)-2-(3′-(5-((2,2-dimethylpyrrolidin-1-yl)methyl)benzo[d]oxazol-2-yl)-2,2′-dimethyl-[1,1′-biphenyl]-3-yl)benzo[d]oxazol-5-yl)methyl)-L-proline], the IC50 at PD-1/PD-L1 (range symbols) is 0.1 to 5 nM.
The same measure, in the same setting: to `Cc1c(-c2nc3cc(CN4CC(C)(C)C4)ccc3o2)cccc1-c1cccc(-c2nc3cc(CN4CCC[C@H]4C(=O)O)c(OC(F)F)cc3o2)c1C` [Example 312, ((6-(difluoromethoxy)-2-(3′-(5-((3,3-dimethylazetidin-1-yl)methyl)benzo[d]oxazol-2-yl)-2,2′-dimethyl-[1,1′-biphenyl]-3-yl)benzo[d]oxazol-5-yl)methyl)-L-proline] belongs 0.1 to 5 nM; to `Cc1c(-c2nc3cc(CN4CCC4C)ccc3o2)cccc1-c1cccc(-c2nc3cc(CN4CCC[C@H]4C(=O)O)c(OC(F)F)cc3o2)c1C` (stereo partly drawn) [Example 313, ((6-(difluoromethoxy)-2-(2,2′-dimethyl-3′-(5-((2-methylazetidin-1-yl)methyl)benzo[d]oxazol-2-yl)-[1,1′-biphenyl]-3-yl)benzo[d]oxazol-5-yl)methyl)-L-proline], 0.1 to 5 nM.
As to `Cc1c(-c2nc3cc(CN4CCC[C@H]4C(=O)O)c(OC(F)F)cc3o2)cccc1-c1cccc(-c2nc3cc(CN4CCC(C(N)=O)C4)cc(C#N)c3o2)c1C` (stereo partly drawn) [Example 315, ((2-(3′-(5-((3-carbamoylpyrrolidin-1-yl)methyl)-7-cyanobenzo [d]oxazol-2-yl)-2,2′-dimethyl-[1,1′-biphenyl]-3-yl)-6-(difluoromethoxy)benzo[d]oxazol-5-yl)methyl)-L-proline], the IC50 on PD-1/PD-L1 (range symbols) lay within 0.1 to 5 nM.
Same read-out and setting: with `Cc1c(-c2nc3cc(CN4CCC[C@H]4C(=O)O)c(OC(F)F)cc3o2)cccc1-c1cccc(-c2nc3cc(CN4CCC(C)(C#N)C4)cc(C#N)c3o2)c1C` (stereo partly drawn) [Example 316, ((2-(3′-(7-cyano-5-((3-cyano-3-methylpyrrolidin-1-yl)methyl)benzo[d]oxazol-2-yl)-2,2′-dimethyl-[1,1′-biphenyl]-3-yl)-6-(difluoromethoxy)benzo[d]oxazol-5-yl)methyl)-L-proline] the figure was 5 to 50 nM.

In general, IC50 refers to the point on the concentration scale where inhibition reaches its midpoint. A low value points to inhibition by little substance.
